Target: T1, SmcR (Vibrio vulnificus, UniProt Q9L8G8)
T1 construct: purified SmcR (dimer); SeMet-substituted SmcR for the crystals
Assay: ITC (two-sequential binding model; second Kd =[…]) and […] Å crystal structure of the soaked complex

T1 sequence (Q9L8G8 entry or part of it): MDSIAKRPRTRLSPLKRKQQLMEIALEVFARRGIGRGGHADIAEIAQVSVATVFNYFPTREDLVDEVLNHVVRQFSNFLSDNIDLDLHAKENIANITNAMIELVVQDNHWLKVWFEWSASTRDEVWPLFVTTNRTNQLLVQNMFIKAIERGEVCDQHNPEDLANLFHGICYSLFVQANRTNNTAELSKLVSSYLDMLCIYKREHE

SMILES: O=S(=O)(c1ccc(Br)s1)n1cccn1 [377B6, 1-(5-bromothiophene-2-sulfonyl)-1H-pyrazole]
- Kd: 470 nM
